# Molecular target: T1, human MC5R (hMC5R) (Homo sapiens, UniProt P33032)
# T1 construct: purchased Perkin Elmer RBXMC5M400UA
# Assay: Human MC5R radioligand binding assay (membranes, [125I] NDP-MSH displacement)
# Conditions: hMC5R binding; tested as trifluoroacetate or hydrochloride salts, or free bases; read-out: MC5R radioligand IC50
# Description: Assessments of compound binding to human MC5R (hMC5R) ) by displacement of an ^125I-labeled NDP-MSH receptor ligand peptide were performed essentially as described in the data sheets produced by Perkin Elmer to accompany their frozen hMC5R membranes (Perkin Elmer catalog number RBXMC5M400UA).
# [^125I] NDP-MSH: radiolabeled in house and purified by HPLC:
# • Na^125I (0.5 mCi, 17.4 Ci/mg) was added to 50 μL sodium phosphate (50 mM, pH7.4) in an eppendorf tube precoated with IODOGEN. After incubation for 10 mins the phosphate buffer containing the iodine was added to NDP-MSH (10 ul at 1 mg/mL) in a separate eppendorf tube. This was incubated for a further 10 mins. The iodinated NDP-MSH was purified by HPLC on a Zorbax SB 300 column using solvent A: 0.05% TFA and solvent B: 90% acetonitrile 0.045% TFA with a linear gradient, 0-67% B over 60 mins. […] Resuspended membranes were kept on ice until they were added to the wells of the plate. Binding Protocol for 400 microassays per vial: • Assays were performed in 96 well polypropylene plates. […] This was incubated for 1 hr at 37° C.
# T1 sequence (P33032 whole entry): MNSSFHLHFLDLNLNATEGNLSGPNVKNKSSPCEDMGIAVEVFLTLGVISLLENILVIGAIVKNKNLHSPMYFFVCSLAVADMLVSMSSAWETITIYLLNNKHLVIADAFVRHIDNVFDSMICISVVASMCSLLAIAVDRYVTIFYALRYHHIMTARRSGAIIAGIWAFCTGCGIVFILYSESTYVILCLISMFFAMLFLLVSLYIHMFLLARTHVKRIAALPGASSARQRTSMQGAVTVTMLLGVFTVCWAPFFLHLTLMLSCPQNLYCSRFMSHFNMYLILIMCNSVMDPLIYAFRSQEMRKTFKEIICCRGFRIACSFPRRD
row,IC50 [nM],SMILES
1,< 1000,"N=C(N)NCCC[C@@H]1N[C@H](CNC(=O)c2ccc3ccccc3c2)CCN(CC2CCCCC2)C1=O [Compound 201, N-(((3S,5S)-1-(cyclohexylmethyl)-3-(3-guanidinopropyl)-2-oxo-1,4-diazepan-5-yl)methyl)-2-naphthamide]"
2,< 1000,"CC(C)c1ccc(/C=C/C(=O)NC[C@@H]2CCN(CC(c3ccccc3)c3ccccc3)C(=O)[C@H](CCN)N2)cc1 [Compound 397, (E)-N-(((3S,5S)-3-(2-aminoethyl)-1-(2,2-diphenylethyl)-2-oxo-1,4-diazepan-5-yl)methyl)-3-(4-isopropylphenyl)acrylamide]"
3,< 1000,"C=C(C)C(CC)CN1CC[C@@H](CNC(=O)c2ccc(Cl)c(Cl)c2)N[C@@H](CCN2CCCCC2)C1=O (stereo partly drawn) [Compound 476, 3,4-dichloro-N-(((3S,5S)-1-(2-ethyl-3-methylbut-3-enyl)-2-oxo-3-(2-(piperidin-1-yl)ethyl)-1,4-diazepan-5-yl)methyl)benzamide]"
4,< 1000,"NCC[C@@H]1N[C@H](CNC(=O)c2ccc3ccccc3c2)CCN(CC(c2ccccc2)c2ccccc2)C1=O [Compound 260, N-(((3S,5S)-3-(2-aminoethyl)-1-(2,2-diphenylethyl)-2-oxo-1,4-diazepan-5-yl)methyl)-2-naphthamide]"
5,< 100,"CC[C@H](CN1CC[C@@H](CNCc2ccc(Cl)c(Cl)c2)N[C@@H](CCN2CCCCC2)C1=O)c1ccccc1 [Compound 485, (3S,5S)-5-((3,4-dichlorobenzylamino)methyl)-1-((S)-2-phenylbutyl)-3-(2-(piperidin-1-yl)ethyl)-1,4-diazepan-2-one]"
6,< 100,"O=C(NC[C@@H]1CCN(CC(c2ccccc2)c2ccccc2)C(=O)[C@H](CCCN2CCCCC2)N1)c1ccc2cc(F)ccc2c1 [Compound 359, N-(((3S,5S)-1-(2,2-diphenylethyl)-2-oxo-3-(3-(piperidin-1-yl)propyl)-1,4-diazepan-5-yl)methyl)-6-fluoro-2-naphthamide]"
7,< 100,"O=C(NC[C@@H]1CCN(CC(c2ccccc2)c2ccccc2)C(=O)[C@H](CCCN2CCC2)N1)c1ccc2ccccc2c1 [Compound 262, N-(((3S,5S)-3-(3-(azetidin-1-yl)propyl)-1-(2,2-diphenylethyl)-2-oxo-1,4-diazepan-5-yl)methyl)-2-naphthamide]"
8,< 100,"CC[C@H](CN1CC[C@@H](CNC(=O)c2ccc3ccccc3c2)N[C@@H](CCN2CCCCC2)C1=O)c1ccccc1 [Compound 38, N-(((3S,5S)-2-oxo-1-((S)-2-phenylbutyl)-3-(2-(piperidin-1-yl)ethyl)-1,4-diazepan-5-yl)methyl)-2-naphthamide]"
9,< 10000,"COc1ccc(C(CN2CC[C@@H](CNC(=O)c3ccc4ccccc4c3)N[C@@H](CCCNC(=N)N)C2=O)c2ccc(OC)cc2)cc1 [Compound 244, N-(((3S,5S)-1-(2,2-bis(4-methoxyphenyl)ethyl)-3-(3-guanidinopropyl)-2-oxo-1,4-diazepan-5-yl)methyl)-2-naphthamide]"
10,< 10000,"N=C(N)NCCC[C@@H]1N[C@H](CNC(=O)c2ccc3ccccc3c2)CCN(C[C@@H](NC(=O)C2CCCCC2)c2ccccc2)C1=O [Compound 270, N-(((3S,5S)-1-((S)-2-(cyclohexanecarboxamido)-2-phenylethyl)-3-(3-guanidinopropyl)-2-oxo-1,4-diazepan-5-yl)methyl)-2-naphthamide]"
11,< 100,"CC[C@H](CN1CC[C@@H](CNC(=O)c2ccc3cc(Cl)ccc3c2)N[C@@H](CCNC(=N)N)C1=O)c1ccccc1 [Compound 457, 6-chloro-N-(((3S,5S)-3-(2-guanidinoethyl)-2-oxo-1-((S)-2-phenylbutyl)-1,4-diazepan-5-yl)methyl)-2-naphthamide]"
12,< 1000,"N=C(N)NCCC[C@@H]1N[C@H](CNC(=O)c2cnc3ccccc3c2)CCN(CC2CCCCC2)C1=O [Compound 482, N-(((3S,5S)-1-(cyclohexylmethyl)-3-(3-guanidinopropyl)-2-oxo-1,4-diazepan-5-yl)methyl)quinoline-3-carboxamide]"
13,< 100,"COc1c(C(=O)NC[C@@H]2CCN(Cc3cc(Cl)cc(Cl)c3)C(=O)[C@H](CCN3CCCCC3)N2)ccc2ccccc12 [Compound 531, N-(((3S,5S)-1-(3,5-dichlorobenzyl)-2-oxo-3-(2-(piperidin-1-yl)ethyl)-1,4-diazepan-5-yl)methyl)-1-methoxy-2-naphthamide]"
14,< 1000,"N=C(N)NCCC[C@@H]1N[C@H](CNC(=O)/C=C/c2ccccc2O)CCN(CC(c2ccccc2)c2ccccc2)C1=O [Compound 189, (E)-N-(((3S,5S)-1-(2,2-diphenylethyl)-3-(3-guanidinopropyl)-2-oxo-1,4-diazepan-5-yl)methyl)-3-(2-hydroxyphenyl)acrylamide]"
15,< 100,"CC[C@H](CN1CC[C@@H](CNC(=O)c2ccc(Cl)c(Cl)c2)N[C@@H](CCN2CCCCCC2)C1=O)c1ccccc1 [Compound 452, N-(((3S,5S)-3-(2-(azepan-1-yl)ethyl)-2-oxo-1-((S)-2-phenylbutyl)-1,4-diazepan-5-yl)methyl)-3,4-dichlorobenzamide]"
16,< 100,"O=C(C=Cc1ccccc1)NC[C@@H]1CCN(CC(c2ccccc2)c2ccccc2)C(=O)[C@H](CCN2CCCCC2)N1 [Compound 283, N-(((3S,5S)-1-(2,2-diphenylethyl)-2-oxo-3-(2-(piperidin-1-yl)ethyl)-1,4-diazepan-5-yl)methyl)cinnamamide]"
17,< 100,"N=C(N)NCCC[C@@H]1N[C@H](CNC(=O)c2ccc3ccccc3c2)CCN(Cc2cc(Cl)cc(Cl)c2)C1=O [Compound 14, N-(((3S,5S)-1-(3,5-dichlorobenzyl)-3-(3-guanidinopropyl)-2-oxo-1,4-diazepan-5-yl)methyl)-2-naphthamide]"
18,< 1000,"N=C(N)NCCC[C@@H]1N[C@H](CNC(=O)c2ccc3ccccc3c2)CCN(Cc2cc(F)cc(Cl)c2)C1=O [Compound 310, N-(((3S,5S)-1-(3-chloro-5-fluorobenzyl)-3-(3-guanidinopropyl)-2-oxo-1,4-diazepan-5-yl)methyl)-2-naphthamide]"
19,< 100,"CCC(CN1CC[C@@H](CNC(=O)c2ccc3ccccc3c2)N[C@@H](CCCN2CCCCC2)C1=O)c1ccccc1 (stereo partly drawn) [Compound 342, N-(((3S,5S)-2-oxo-1-(2-phenylbutyl)-3-(3-(piperidin-1-yl)propyl)-1,4-diazepan-5-yl)methyl)-2-naphthamide]"
20,< 100,"CC(C)[C@H](CN1CC[C@@H](CNC(=O)c2ccc3ccccc3c2)N[C@@H](CCN2CCCCC2)C1=O)c1ccccc1 [Compound 395, N-(((3S,5S)-1-((S)-3-methyl-2-phenylbutyl)-2-oxo-3-(2-(piperidin-1-yl)ethyl)-1,4-diazepan-5-yl)methyl)-2-naphthamide]"
21,< 100,"CCC[C@@H](CN1CC[C@@H](CNC(=O)c2ccc3ccccc3c2)N[C@@H](CCN2CCCCC2)C1=O)c1ccccc1 [Compound 432, N-(((3S,5S)-2-oxo-1-((R)-2-phenylpentyl)-3-(2-(piperidin-1-yl)ethyl)-1,4-diazepan-5-yl)methyl)-2-naphthamide]"
22,< 10,"CC[C@H](CN1CC[C@@H](CNC(=O)c2ccc(Cl)c(Cl)c2)N[C@@H](CCN2CCC(C)CC2)C1=O)c1ccccc1 [Compound 446, 3,4-dichloro-N-(((3S,5S)-3-(2-(4-methylpiperidin-1-yl)ethyl)-2-oxo-1-((S)-2-phenylbutyl)-1,4-diazepan-5-yl)methyl)benzamide]"
23,< 10000,"CC(C)C(CN1CC[C@@H](CNC(=O)c2ccc3ccccc3c2)N[C@@H](CCN)C1=O)c1ccccc1 (stereo partly drawn) [Compound 388, N-(((3S,5S)-3-(2-aminoethyl)-1-(3-methyl-2-phenylbutyl)-2-oxo-1,4-diazepan-5-yl)methyl)-2-naphthamide]"
24,< 1000,"NCC[C@@H]1N[C@H](CNC(=O)C=Cc2ccccc2)CCN(CC(c2ccccc2)c2ccccc2)C1=O [Compound 279, N-(((3S,5S)-3-(2-aminoethyl)-1-(2,2-diphenylethyl)-2-oxo-1,4-diazepan-5-yl)methyl)cinnamamide]"
25,< 100,"CCOc1ccc(/C=C/C(=O)NC[C@@H]2CCN(CC(c3ccccc3)c3ccccc3)C(=O)[C@H](CCCNC(=N)N)N2)cc1 [Compound 210, (E)-N-(((3S,5S)-1-(2,2-diphenylethyl)-3-(3-guanidinopropyl)-2-oxo-1,4-diazepan-5-yl)methyl)-3-(4-ethoxyphenyl)acrylamide]"
26,< 10000,"NCCCC[C@@H]1N[C@H](CNC(=O)[C@@H]2Cc3ccccc3CN2)CCN(CC(c2ccccc2)c2ccccc2)C1=O [Compound 127, (S)—N-(((3S,5S)-3-(4-aminobutyl)-1-(2,2-diphenylethyl)-2-oxo-1,4-diazepan-5-yl)methyl)-1,2,3,4-tetrahydroisoquinoline-3-carboxamide]"
27,< 10000,"N=C(N)NCCC[C@@H]1N[C@H](CNC(=O)c2cc3ccccc3o2)CCN(CC(c2ccccc2)c2ccccc2)C1=O [Compound 132, N-(((3S,5S)-1-(2,2-diphenylethyl)-3-(3-guanidinopropyl)-2-oxo-1,4-diazepan-5-yl)methyl)benzofuran-2-carboxamide]"
28,< 10000,"N=C(N)NCCC[C@@H]1N[C@H](CNC(=O)c2ccc3ccccc3c2)CCN(CC2c3ccccc3-c3ccccc32)C1=O [Compound 227, N-(((3S,5S)-1-((9H-fluoren-9-yl)methyl)-3-(3-guanidinopropyl)-2-oxo-1,4-diazepan-5-yl)methyl)-2-naphthamide]"

# Source: patent US8008291B2 (Mimetica Pty Ltd, priority 2008, dated 2011)
